According to the NIST ThermoML archive (doi:10.1016/j.jct.2017.02.004):

Test: mn = molality of the nth substance listed, in mol/kg
Conditions: 100 kPa, Liquid; for speed of sound: Frequency=3 MHz, Single path-length method; for mass density: Vibrating tube method

[Cl-].[Li+] [lithium chloride] + O
Conditions	mass density, 288.15 K [kg/m3]	mass density, 293.15 K [kg/m3]	mass density, 298.15 K [kg/m3]	mass density, 303.15 K [kg/m3]	mass density, 308.15 K [kg/m3]	speed of sound, 288.15 K [m/s]	speed of sound, 293.15 K [m/s]	speed of sound, 298.15 K [m/s]	speed of sound, 303.15 K [m/s]	speed of sound, 308.15 K [m/s]
m1 = 0.05	1000.33	999.427	998.265	996.862	995.242	1469.6	1485.6	–	1512	–
m1 = 0.1002	1001.57	1000.66	999.489	998.083	–	1472.7	1488.6	1502.6	1514.8	1525.3
m1 = 0.1498	1002.78	1001.87	1000.69	999.281	997.651	1475.8	1491.6	1505.5	1517.6	–
m1 = 0.1999	1004	1003.08	1001.89	1000.48	998.845	1478.8	1494.6	1508.3	1520.3	1530.7
m1 = 0.2502	1005.22	1004.28	1003.1	1001.68	1000.04	1482	1497.6	1511.2	–	–
m1 = 0.2999	1006.41	1005.47	1004.28	1002.86	1001.21	1485	1500.5	1514.1	1525.9	1536
m1 = 0.3503	1007.63	1006.67	1005.47	1004.05	1002.4	1488.1	1503.5	1516.9	1528.6	1538.7
m1 = 0.4	1008.83	1007.86	1006.65	1005.22	1003.57	1491.1	1506.3	1519.6	1531.2	1541.2
m1 = 0.4503	1010.02	1009.04	1007.83	1006.4	1004.74	1494.2	1509.2	1522.4	1533.9	1543.8
m1 = 0.5	1011.21	1010.21	1008.99	1007.56	1005.9	1497.2	1512.1	1525.1	1536.6	1546.4
